From paper PMC3066644 (Journal of Lipids, 2010)

Legend:
[1] = target: T1, acid ceramidase (aCDase) (Homo sapiens, UniProt Q13510); assay: micellar aCDase assay at […] inhibitor, recombinant human enzyme; format: biochemical
T1 construct: gene ASAH1
T1 sequence (Q13510 22-142): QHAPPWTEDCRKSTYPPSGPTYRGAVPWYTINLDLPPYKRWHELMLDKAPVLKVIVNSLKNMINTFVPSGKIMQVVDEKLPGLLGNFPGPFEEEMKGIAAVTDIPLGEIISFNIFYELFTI
T1 sequence (Q13510 143-395): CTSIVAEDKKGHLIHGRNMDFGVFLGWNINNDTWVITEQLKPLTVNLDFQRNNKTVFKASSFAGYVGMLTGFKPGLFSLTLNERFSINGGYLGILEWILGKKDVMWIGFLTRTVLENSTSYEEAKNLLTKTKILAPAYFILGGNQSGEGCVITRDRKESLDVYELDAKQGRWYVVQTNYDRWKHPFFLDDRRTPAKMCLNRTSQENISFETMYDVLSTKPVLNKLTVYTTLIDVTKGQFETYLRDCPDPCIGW

[2] = target: T1, acid ceramidase (aCDase); assay: micellar aCDase assay with recombinant human enzyme, HPLC fluorescence detection of sphingosine; format: biochemical

Compound | micellar aCDase assay at 2.5 μM inhibitor, recombinant human enzyme [1] | IC50 [2] [nM]
CCCCCCCCCCCCCC(=O)NCC(O)c1cccnc1 (racemic) [DP24c, N-(2-Hydroxy-2-(Pyridin-3-yl)-Ethyl)Tetradecanamide] | Although DP24c provides a basic moiety, it showed at least the same inhibition as DP24a or DP24b | –
CCCCCCCCCCCCCCNC(=O)NCC(O)c1cccnc1 (racemic) [DP25c, 1-(2-Hydroxy-2-(Pyridin-3-yl)Ethyl)-3-Tetradecylurea] | Evaluation in the aCDase assay revealed only a slightly better inhibition | –
CCCCCCCCCCCCCCNC(=O)NCC(O)c1ccccc1 (racemic) [DP25a, 1-(2-Hydroxy-2-Phenylethyl)-3-Tetradecylurea] | Evaluation in the aCDase assay revealed only a slightly better inhibition | –
CCCCCCCCCCCCCC(=O)NCC(O)c1ccccc1 (racemic) [DP24a, N-(2-Hydroxy-2-Phenylethyl)-Tetradecanamide] | – | 1290
